ChEMBL document CHEMBL1156092, “Anthranilic sulfonamide CCK1/CCK2 dual receptor antagonists II: tuning of receptor selectivity and in vivo efficacy” (Bioorg Med Chem Lett, 2009)

Tests used:
[1] = Metabolic stability in human liver microsomes assessed as compound remaining after 15 mins; format: ADME, Microsome; conditions: read-out: Stability
[2] = Apparent permeability from apical to basolateral side in human Caco-2 cells; format: ADME, cell-based
[3] = Apparent permeability from basolateral to apical side in human Caco-2 cells; format: ADME, cell-based
[4] = Plasma half life in rat at 2 umol/kg, iv; format: ADME, organism-based
[5] = Volume of distribution at steady state in rat at 2 umol/kg, iv and 2 umol/kg, po; format: ADME, organism-based; conditions: in vivo, read-out: Vdss
[6] = Plasma clearance in rat at 2 umol/kg, iv; format: ADME, organism-based
[7] = Oral bioavailability in rat at 2 umol/kg; format: ADME, organism-based; conditions: in vivo
[8] = system: Rattus norvegicus; test: Inhibition of CCK8s-stimulated plasma amylase release in rat assessed as reduction in plasma amylase at 30 umol/kg, po dosed 60 mins before 10 nmol/kg, sc CCK8s challenge and measured after 6 hrs; format: functional
[9] = system: Rattus norvegicus; test: Inhibition of iv dosed pentagastrin-stimulated gastric acid secretion in iv dosed anesthetized Ghosh and Schild rat model assessed as decrease in gastric lumen perfusate pH; format: functional, Stomach; conditions: for ED50: Rattus norvegicus, Stomach, iv
[10] = species on record: Homo sapiens; test: Ratio of pKi for human CCK-1R to pKi for human CCK-2R
[11] = target: T1, Gastrin/cholecystokinin type B receptor (Homo sapiens, UniProt P32239); test: Displacement of [125I]-CCK-8S from human CCK-2R after 100 mins by liquid scintillation counting
T1 sequence (P32239 whole entry): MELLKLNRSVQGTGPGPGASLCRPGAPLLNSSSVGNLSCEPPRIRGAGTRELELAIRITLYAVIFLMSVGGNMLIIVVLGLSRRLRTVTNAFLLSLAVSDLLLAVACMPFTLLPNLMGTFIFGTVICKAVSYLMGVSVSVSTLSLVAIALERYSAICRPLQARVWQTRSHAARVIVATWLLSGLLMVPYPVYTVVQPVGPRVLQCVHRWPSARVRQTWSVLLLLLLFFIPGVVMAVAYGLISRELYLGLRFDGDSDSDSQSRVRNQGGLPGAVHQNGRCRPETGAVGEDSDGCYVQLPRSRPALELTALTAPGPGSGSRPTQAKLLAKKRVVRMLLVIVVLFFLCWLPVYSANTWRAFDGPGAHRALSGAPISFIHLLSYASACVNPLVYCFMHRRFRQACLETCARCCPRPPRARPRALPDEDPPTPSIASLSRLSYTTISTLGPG

| remaining at 0.25 h [1] [%] | Papp A→B [2] [×10⁻⁶ cm/s] | Papp B→A [3] [×10⁻⁶ cm/s] | half-life [4] [h] | Vd [5] [L/kg] | clearance [6] [mL/min/kg] | bioavailability [7] [%] | Ratio pKi [10] | Ki [11] [µM] | SMILES | inhibition (INH) [8] [%] | pED50 [9] | ED50 [9] [µmol/kg] |
| --- | --- | --- | --- | --- | --- | --- | --- | --- | --- | --- | --- | --- |
| 76 | 0.02 | 0.37 | 6.2 | 0.203 | 2.6 | 21 |  |  | O=C(N[C@@H](Cc1ccc(F)c(Br)c1)C(=O)O)c1cc(Cl)c(Cl)cc1NS(=O)(=O)c1cccc2nsnc12 | 67 | 5.8 | 1.6 |
| 50 | 0.04 | 4.76 | 1.5 | 0.145 | 4.1 | 4 | 1.6 |  | O=C(N[C@@H](Cc1ccc(F)c(Br)c1)C(=O)O)c1ccc(Cl)cc1NS(=O)(=O)c1cccc2nccnc12 |  |  |  |
| 54 | 0.03 | 4.36 |  |  |  |  | 1.8 |  | O=C(N[C@@H](Cc1ccc(F)c(Br)c1)C(=O)O)c1ccc(Br)cc1NS(=O)(=O)c1cccc2nccnc12 | 67 |  |  |
|  |  |  |  |  |  |  | 0.9 | 0.0251 | O=C(N[C@@H](Cc1ccc(Cl)c(Cl)c1)C(=O)O)c1ccc(I)cc1NS(=O)(=O)c1cccc2nsnc12 | 45 | 5.1 | 7.9 |
| 61 | 0.1 | 0.19 |  |  |  |  | 1 |  | O=C(N[C@@H](Cc1ccc(Cl)c(Br)c1)C(=O)O)c1ccc(Br)cc1NS(=O)(=O)c1cccc2nsnc12 |  |  |  |
|  |  |  | 6.4 | 0.215 | 3.1 | 14 | 1.5 |  | O=C(N[C@@H](Cc1ccc(F)c(Br)c1)C(=O)O)c1ccc(I)cc1NS(=O)(=O)c1cccc2nsnc12 |  |  |  |
| 69 | 0.1 | 1.97 |  |  |  |  | 1 |  | O=C(N[C@@H](Cc1ccc(Cl)c(Br)c1)C(=O)O)c1ccc(Br)cc1NS(=O)(=O)c1cccc2nccnc12 | 65 |  |  |
| 47 | 0.05 | 0.34 |  |  |  |  | 1.6 |  | O=C(N[C@@H](Cc1ccc(F)c(Br)c1)C(=O)O)c1ccc(Br)cc1NS(=O)(=O)c1cccc2nsnc12 |  |  |  |
| 65 | 0.1 | 1.05 | 7 | 0.129 | 2 | 9 | 1.4 |  | O=C(N[C@@H](Cc1ccc(F)c(Br)c1)C(=O)O)c1cc(Cl)c(Cl)cc1NS(=O)(=O)c1cccc2nccnc12 | -5 |  |  |
| 65 | 0.04 | 1.25 | 1.3 | 0.105 | 3.1 | 11 | 1.4 |  | O=C(N[C@@H](Cc1ccc(F)c(Br)c1)C(=O)O)c1ccc(Cl)cc1NS(=O)(=O)c1cccc2nsnc12 |  |  |  |
